Source: ChEMBL document CHEMBL3091428, “Synthesis and initial biological evaluation of substituted 1-phenylamino-2-thio-4,5-dimethyl-1H-imidazole derivatives” (Bioorg Med Chem Lett, 2013)
Converted amounts (≈) assume the structure as drawn.

Columns and labels:
RXF 393 = assay: Cytotoxicity against human RXF393 cells assessed as cell growth after 48 hrs by SRB assay relative to control; format: functional
SN12C = assay: Cytotoxicity against human SN12C cells assessed as cell growth after 48 hrs by SRB assay relative to control; format: functional
CAKI-1 = assay: Cytotoxicity against human Caki1 cells assessed as cell growth after 48 hrs by SRB assay relative to control; format: functional
ACHN = assay: Cytotoxicity against human ACHN cells assessed as cell growth after 48 hrs by SRB assay relative to control; format: functional
786-0 = assay: Cytotoxicity against human 786-0 cells assessed as cell growth after 48 hrs by SRB assay relative to control; format: functional
SK-OV-3 = assay: Cytotoxicity against human SKOV3 cells assessed as cell growth after 48 hrs by SRB assay relative to control; format: functional
[1] = Cytotoxicity against human OVCAR5 cells assessed as cell growth after 48 hrs by SRB assay relative to control; format: functional, OVCAR-5
OVCAR-8 = assay: Cytotoxicity against human OVCAR8 cells assessed as cell growth after 48 hrs by SRB assay relative to control; format: functional
[2] = Cytotoxicity against human OVCAR4 cells assessed as cell growth after 48 hrs by SRB assay relative to control; format: functional, OVCAR-4
OVCAR-3 = assay: Cytotoxicity against human OVCAR3 cells assessed as cell growth after 48 hrs by SRB assay relative to control; format: functional
IGROV-1 = assay: Cytotoxicity against human IGROV1 cells assessed as cell growth after 48 hrs by SRB assay relative to control; format: functional
UACC-62 = assay: Cytotoxicity against human UACC62 cells assessed as cell growth after 48 hrs by SRB assay relative to control; format: functional
[3] = Cytotoxicity against human UACC257 cells assessed as cell growth after 48 hrs by SRB assay relative to control; format: functional, UACC-257
SK-MEL-28 = assay: Cytotoxicity against human SK-MEL-28 cells assessed as cell growth after 48 hrs by SRB assay relative to control; format: functional
M14 = assay: Cytotoxicity against human M14 cells assessed as cell growth after 48 hrs by SRB assay relative to control; format: functional
MDA-MB-435 = assay: Cytotoxicity against human MDA-MB-435 cells assessed as cell growth after 48 hrs by SRB assay relative to control; format: functional
Malme-3M = assay: Cytotoxicity against human MALME-3M cells assessed as cell growth after 48 hrs by SRB assay relative to control; format: functional
SNB-75 = assay: Cytotoxicity against human SNB75 cells assessed as cell growth after 48 hrs by SRB assay relative to control; format: functional
U-251 = assay: Cytotoxicity against human U251 cells assessed as cell growth after 48 hrs by SRB assay relative to control; format: functional
SNB-19 = assay: Cytotoxicity against human SNB19 cells assessed as cell growth after 48 hrs by SRB assay relative to control; format: functional
SF-539 = assay: Cytotoxicity against human SF539 cells assessed as cell growth after 48 hrs by SRB assay relative to control; format: functional
SF-268 = assay: Cytotoxicity against human SF268 cells assessed as cell growth after 48 hrs by SRB assay relative to control; format: functional
KM12 = assay: Cytotoxicity against human KM12 cells assessed as cell growth after 48 hrs by SRB assay relative to control; format: functional
HCT-116 = assay: Cytotoxicity against human HCT116 cells assessed as cell growth after 48 hrs by SRB assay relative to control; format: functional
HCC 2998 = assay: Cytotoxicity against human HCC2998 cells assessed as cell growth after 48 hrs by SRB assay relative to control; format: functional
COLO 205 = assay: Cytotoxicity against human COLO205 cells assessed as cell growth after 48 hrs by SRB assay relative to control; format: functional
NCI-H522 = assay: Cytotoxicity against human NCI-H522 cells assessed as cell growth after 48 hrs by SRB assay relative to control; format: functional
NCI-H322M = assay: Cytotoxicity against human NCI-H322M cells assessed as cell growth after 48 hrs by SRB assay relative to control; format: functional
NCI-H23 = assay: Cytotoxicity against human NCI-H23 cells assessed as cell growth after 48 hrs by SRB assay relative to control; format: functional
NCI-H226 = assay: Cytotoxicity against human NCI-H226 cells assessed as cell growth after 48 hrs by SRB assay relative to control; format: functional
HOP-92 = assay: Cytotoxicity against human HOP92 cells assessed as cell growth after 48 hrs by SRB assay relative to control; format: functional
HOP-62 = assay: Cytotoxicity against human HOP62 cells assessed as cell growth after 48 hrs by SRB assay relative to control; format: functional
A549 = assay: Cytotoxicity against human A549 cells assessed as cell growth after 48 hrs by SRB assay relative to control; format: functional
SR = assay: Cytotoxicity against human SR cells assessed as cell growth after 48 hrs by SRB assay relative to control; format: functional
RPMI-8226 = assay: Cytotoxicity against human RPMI8226 cells assessed as cell growth after 48 hrs by SRB assay relative to control; format: functional
MOLT-4 = assay: Cytotoxicity against human MOLT4 cells assessed as cell growth after 48 hrs by SRB assay relative to control; format: functional
K562 = assay: Cytotoxicity against human K562 cells assessed as cell growth after 48 hrs by SRB assay relative to control; format: functional
HL-60(TB) = assay: Cytotoxicity against human HL-60(TB) cells assessed as cell growth after 48 hrs by SRB assay relative to control; format: functional
Nakaseomyces glabratus = assay: Antimicrobial activity against Candida glabrata ATCC 90030 after 24 hrs by broth microdilution method; format: functional; settings: ATCC 90030, 24 h
Listeria monocytogenes = assay: Antimicrobial activity against Listeria monocytogenes ATCC 19115 after 24 hrs by broth microdilution method; format: functional; settings: ATCC 19115, 24 h
Enterococcus faecalis [4] = assay: Antimicrobial activity against Enterococcus faecalis ATCC 51299 after 24 hrs by broth microdilution method; format: functional; settings: ATCC 51299, 24 h
Enterococcus faecalis [5] = assay: Antimicrobial activity against Enterococcus faecalis ATCC 29212 after 24 hrs by broth microdilution method; format: functional; settings: ATCC 29212, 24 h
Escherichia coli = assay: Antimicrobial activity against Escherichia coli ATCC 35218 after 24 hrs by broth microdilution method; format: functional; settings: ATCC 35218, 24 h
T47D = assay: Cytotoxicity against human T47D cells assessed as cell growth after 48 hrs by SRB assay relative to control; format: functional
BT-549 = assay: Cytotoxicity against human BT549 cells assessed as cell growth after 48 hrs by SRB assay relative to control; format: functional
MDA-MB-231 = assay: Cytotoxicity against human MDA-MB-231 cells assessed as cell growth after 48 hrs by SRB assay relative to control; format: functional
[6] = Cytotoxicity against human Hs578T cells assessed as cell growth after 48 hrs by SRB assay relative to control; format: functional, Hs-578T
MCF7 = assay: Cytotoxicity against human MCF7 cells assessed as cell growth after 48 hrs by SRB assay relative to control; format: functional
[7] = Cytotoxicity against human UO31 cells assessed as cell growth after 48 hrs by SRB assay relative to control; format: functional, UO-31

Structure (SMILES): COc1ccc(C(=O)CSc2nc(C)c(C)n2Nc2ccccc2)cc1
- Activity (RXF 393): 85.48%
- Activity (SN12C): 98.88%
- Activity (CAKI-1): 81.41%
- Activity (ACHN): 99.05%
- Activity (786-0): 90.03%
- Activity (SK-OV-3): 93.26%
- Activity [1]: 99.29%
- Activity (OVCAR-8): 100.7%
- Activity [2]: 92.83%
- Activity (OVCAR-3): 101.3%
- Activity (IGROV-1): 103.3%
- Activity (UACC-62): 90.38%
- Activity [3]: 99.75%
- Activity (SK-MEL-28): 113.1%
- Activity (M14): 91.19%
- Activity (MDA-MB-435): 95.25%
- Activity (Malme-3M): 101.4%
- Activity (SNB-75): 93.05%
- Activity (U-251): 93.77%
- Activity (SNB-19): 96.63%
- Activity (SF-539): 100.8%
- Activity (SF-268): 104.5%
- Activity (KM12): 97.97%
- Activity (HCT-116): 96.71%
- Activity (HCC 2998): 93.49%
- Activity (COLO 205): 100.5%
- Activity (NCI-H522): 77.18%
- Activity (NCI-H322M): 82.37%
- Activity (NCI-H23): 88.38%
- Activity (NCI-H226): 92.08%
- Activity (HOP-92): 82.74%
- Activity (HOP-62): 100.7%
- Activity (A549): 97.35%
- Activity (SR): 83.4%
- Activity (RPMI-8226): 94.68%
- Activity (MOLT-4): 89.96%
- Activity (K562): 87.79%
- Activity (HL-60(TB)): 87.13%
- MIC (Nakaseomyces glabratus): 800 µg/mL (≈ 2180 µM)
- MIC (Listeria monocytogenes): 800 µg/mL (≈ 2180 µM)
- MIC (Enterococcus faecalis [4]): 800 µg/mL (≈ 2180 µM)
- MIC (Enterococcus faecalis [5]): 400 µg/mL (≈ 1090 µM)
- MIC (Escherichia coli): 800 µg/mL (≈ 2180 µM)
- Activity (T47D): 71.62%
- Activity (BT-549): 84.66%
- Activity (MDA-MB-231): 89.05%
- Activity [6]: 107.2%
- Activity (MCF7): 105.7%
- Activity [7]: 69.91%

Structure (SMILES): Cc1nc(SCC(=O)c2ccccc2)n(Nc2ccccc2)c1C
- Activity (RXF 393): 103.1%
- Activity (SN12C): 99.9%
- Activity (CAKI-1): 88.11%
- Activity (ACHN): 106.6%
- Activity (786-0): 106.4%
- Activity (SK-OV-3): 97.79%
- Activity [1]: 109.7%
- Activity (OVCAR-8): 99.29%
- Activity [2]: 105.2%
- Activity (OVCAR-3): 109.4%
- Activity (IGROV-1): 98.59%
- Activity (UACC-62): 102.6%
- Activity [3]: 97.59%
- Activity (SK-MEL-28): 110.7%
- Activity (M14): 101.1%
- Activity (MDA-MB-435): 97.36%
- Activity (Malme-3M): 103.5%
- Activity (SNB-75): 108.2%
- Activity (U-251): 97.26%
- Activity (SNB-19): 98.31%
- Activity (SF-539): 104.4%
- Activity (SF-268): 101.9%
- Activity (KM12): 104.6%
- Activity (HCT-116): 86.93%
- Activity (HCC 2998): 110.5%
- Activity (COLO 205): 110.9%
- Activity (NCI-H522): 81.35%
- Activity (NCI-H322M): 90.31%
- Activity (NCI-H23): 93.43%
- Activity (NCI-H226): 99.07%
- Activity (HOP-92): 91.79%
- Activity (HOP-62): 97.72%
- Activity (A549): 99.16%
- Activity (SR): 82.35%
- Activity (RPMI-8226): 102.2%
- Activity (MOLT-4): 100.2%
- Activity (K562): 89.68%
- Activity (HL-60(TB)): 91%
- MIC (Nakaseomyces glabratus): 800 µg/mL (≈ 2370 µM)
- MIC (Listeria monocytogenes): 800 µg/mL (≈ 2370 µM)
- MIC (Enterococcus faecalis [4]): 800 µg/mL (≈ 2370 µM)
- MIC (Enterococcus faecalis [5]): 800 µg/mL (≈ 2370 µM)
- MIC (Escherichia coli): 800 µg/mL (≈ 2370 µM)
- Activity (T47D): 85.54%
- Activity (BT-549): 88.93%
- Activity (MDA-MB-231): 98.84%
- Activity [6]: 108%
- Activity (MCF7): 96.9%
- Activity [7]: 68.6%

Structure (SMILES): Cc1nc(SCC(=O)c2ccc(Cl)cc2)n(Nc2ccccc2)c1C
- Activity (RXF 393): 96.88%
- Activity (SN12C): 93.18%
- Activity (CAKI-1): 78.89%
- Activity (ACHN): 102.7%
- Activity (786-0): 97.67%
- Activity (SK-OV-3): 102.4%
- Activity [1]: 103.9%
- Activity (OVCAR-8): 96.67%
- Activity [2]: 93.89%
- Activity (OVCAR-3): 108.6%
- Activity (IGROV-1): 102.1%
- Activity (UACC-62): 90.32%
- Activity [3]: 97.88%
- Activity (SK-MEL-28): 108.7%
- Activity (M14): 107.4%
- Activity (MDA-MB-435): 99.36%
- Activity (Malme-3M): 97.11%
- Activity (SNB-75): 94.11%
- Activity (U-251): 90.68%
- Activity (SNB-19): 89%
- Activity (SF-539): 103.9%
- Activity (SF-268): 103.9%
- Activity (KM12): 105%
- Activity (HCT-116): 90.7%
- Activity (HCC 2998): 106.9%
- Activity (COLO 205): 96.15%
- Activity (NCI-H522): 79.92%
- Activity (NCI-H322M): 88.63%
- Activity (NCI-H23): 89.25%
- Activity (NCI-H226): 95.15%
- Activity (HOP-92): 76.51%
- Activity (HOP-62): 101.2%
- Activity (A549): 86.67%
- Activity (SR): 86.04%
- Activity (RPMI-8226): 92.33%
- Activity (MOLT-4): 87.31%
- Activity (K562): 88.1%
- Activity (HL-60(TB)): 92.02%
- MIC (Nakaseomyces glabratus): 400 µg/mL (≈ 1080 µM)
- MIC (Listeria monocytogenes): 400 µg/mL (≈ 1080 µM)
- MIC (Enterococcus faecalis [4]): 400 µg/mL (≈ 1080 µM)
- MIC (Enterococcus faecalis [5]): 200 µg/mL (≈ 538 µM)
- MIC (Escherichia coli): 400 µg/mL (≈ 1080 µM)
- Activity (T47D): 79.51%
- Activity (BT-549): 104.7%
- Activity (MDA-MB-231): 95.48%
- Activity [6]: 96.61%
- Activity (MCF7): 88.08%
- Activity [7]: 66.15%
